Results from patent publication US20250388602A1 (Genase Therapeutics B.V., priority 2022, published 2025).
pIC50: −log10 of the molar value. Read-outs that look alike come from different tables or passages of the source.

How the values were obtained:
[1] = molecular target: recombinant human DHODH (Homo sapiens (Human), UniProt Q02127); experiment: DHODH enzyme assay (Assay A), DCIP absorbance; assay type: biochemical; conditions: bins ≥10 nM-<100 nM and <10 nM; read-out: IC50 DHODH inhibition activity
recombinant human DHODH, sequence (Q02127 whole entry): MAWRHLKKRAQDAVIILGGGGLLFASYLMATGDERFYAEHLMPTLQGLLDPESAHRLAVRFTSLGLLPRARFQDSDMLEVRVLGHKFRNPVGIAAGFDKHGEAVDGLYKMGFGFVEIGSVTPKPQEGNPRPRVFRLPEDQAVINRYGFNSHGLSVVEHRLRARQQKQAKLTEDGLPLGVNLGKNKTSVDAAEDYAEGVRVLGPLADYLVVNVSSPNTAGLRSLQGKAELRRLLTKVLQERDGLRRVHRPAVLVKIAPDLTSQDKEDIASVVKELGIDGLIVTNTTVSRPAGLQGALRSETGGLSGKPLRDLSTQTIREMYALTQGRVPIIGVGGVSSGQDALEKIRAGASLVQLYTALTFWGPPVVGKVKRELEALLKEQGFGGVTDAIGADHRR
Experimental: Inhibition of human dihydroorotate dehydrogenase (DHODH) by example compounds as described herein was determined using one of two assays as described below.
DHODH enzyme assays were performed with 6 nM recombinant human DHODH (purified essentially as described by Walse et al., Biochemistry, 47, 8929-8936 (2008)). The reaction mixture consisted of 1 mM DL-dihydroorotic acid (#D7003, Sigma-Aldrich), 100 μM 3,4-dimethoxy-5-methyl-p-benzoquinone (#D9150, Sigma-Aldrich), and 100 μM 2,6-dichlorophenolindophenol sodium salt (DCIP) (#D1878, Sigma-Aldrich) in enzyme buffer (50 mM Tris-HCl pH 8.0, 0.1% Triton X-100, 150 mM KCl). A stock solution of 20 mM DCIP was prepared in enzyme buffer and filtered through Whatman paper just before use. Reactions were performed in a total volume of 100 μL, consisting of 1 μL of compound, 49 μL of enzyme and 50 μL of reaction mixture. Loss in absorbance by chromogen DCIP was measured at 595 nm following a 70 minute incubation at 32° C.

[2] = system: MOLM-13 cells; experiment: MOLM-13 cell viability (Assay B), Cell Titer-Glo; assay type: cell-based; conditions: for pIC50: Homo sapiens, read-out: IC50 MOLM13 inhibition activity
Experimental: MOLM-13 cells (an acute myeloid leukemia cell line) were plated in RPMI supplied with 10% FBS and 1% Pen/Strep in 384-well plates at 1,000 cells per well on day 0. On day 1, treatment of the cells with compound (concentration range 10E-5 and 6E-12 M) was initiated in the presence or absence of 100 μM uridine. After 72 hours incubation of the cells with or without test compound, the number of viable cells per well was assessed by Cell Titer-Glo Luminescent Cell Viability Assay (Promega, Madison, WI, USA). […] Each condition was tested in duplicate and the potency of test compounds was determined from two independent experiments.

[3] = in vitro; conditions: for HLM % remaining: % remaining at 60 min, 1 μM; for half-life at 1 μM: both, human
Experimental: Human Liver Microsomal metabolic stability: The microsomal metabolic stability assay utilized pooled human liver microsomes (mixed gender, BD Gentest), with supplemented cofactors NADPH and UDPGA (Solarbio S&T Co., LTD). Two separate experiments were performed as follows: • a) With cofactors (NADPH & UDPGA): 25 μL of 10 mM NADPH and 25 μL of 20 mM UDPGA were added to 197.5 μL of reaction solution (phosphate buffer (final concentration in assay 100 mM), MgCl2 (final concentration in assay (5 mM)), alamethacin (final concentration in assay 0.025 mg/mL) and microsomes (final concentration in assay 0.5 mg/mL). • b) Without cofactors (NADPH & UDPGA): 50 μL of H2O was added to 197.5 μL of reaction solution.
The mixture was pre-warmed at 37° C. for 10 minutes. The reaction was started with the addition of 2.5 μL of 100 μM control compound or test compound solutions. Diclofenac was used as positive control in this study. The final concentration of control compound and test compounds was 1 μM. Aliquots of 25 μL were taken from the reaction solution at 0.5, 5, 15, 30 and 60 minutes. The reaction was stopped by the addition of 5 volumes of cold acetonitrile containing internal standards. Samples were centrifuged at 3,220 g for 40 minutes. An aliquot of 100 μL of the supernatant was mixed with 100 μL of ultra-pure H2O and then used for LC-MS/MS analysis. Peak areas were determined from extracted ion chromatograms. Percent parent remaining was calculated from the area ratio of test compound. The slope value was determined by linear regression of the natural logarithm of percent parent remaining versus incubation time curve.
(§1) Peak areas were determined from extracted ion chromatograms to determine the in vitro half-life (t½) of parent compound by regression analysis of the percent parent disappearance vs. time curve. The in vitro half-life (in vitro t½) was determined from the slope value (in vitro t½=−0.693/k). All calculations were carried out using Microsoft Excel.

[4] = in vitro; conditions: for hHEPs % remaining: 1 μM
Experimental: Human Hepatocyte metabolic stability: Human hepatocytes (X008000, BioIVT) were freshly thawed prior to the incubations with test compound. Hepatocytes were transferred to 50 mL conical tubes and centrifuged 10 min at 100 g. Thawing medium was removed and replaced by preheated (37° C.) incubation medium (William's E Medium supplemented with GlutaMAX), to yield a hepatocyte density ˜1.5×10^6 cells/mL. Cell viability was determined using AO/PI staining and hepatocytes were diluted using incubation medium to a working density of 0.5×10^6 viable cells/mL. 198 μL of hepatocytes were added into each well of a 96-well plate and placed in the incubator to allow the hepatocytes to warm for 10 minutes. 2 μL test compound or positive control was placed into respective wells of the 96-well plate (final concentration test compound 1 μM) to start the reaction. The plate was returned to the incubator and 25 μL aliquots of the well contents were removed at time points of 0, 15, 30, 60, 90 and 120 minutes. The aliquots were mixed with 6 volumes (150 μL) of acetonitrile containing internal standards (100 nM alprazolam, 200 nM caffeine, and 100 nM tolbutamide) to terminate the reaction. The plate was centrifuged for 20 minutes at 3,200 g. Aliquots of 150 μL of the supernatants were used for LC/MS/MS analysis. All incubations were performed in duplicate.
as §1

[5] = MOLM-13, 72 hours, bins ≥10 nM-<100 nM and <10 nM

Row | SMILES | pIC50 [1] | pIC50 [2, 5] | HLM % remaining [3] | half-life at 1 μM ([3]; pooled liver microsomes) | half-life at 1 μM ([4]; human, hepatocytes) | hHEPs % remaining ([4]; human, hepatocytes, 2 h) | MOLM13 cell growth and/or viability (FIG. 2) ([2]; absence of uridine) | effect on MOLM13 cell growth and/or viability on addition of excess uridine (FIG. 2) ([2]; presence of 100 μM uridine) | hHEPs % remaining ([4]; % remaining at 120 min) | pIC50 ([2]; MOLM-13, 72 h) | half-life at 1 μM ([3]; microsomes)
1 | O=C(N[C@@H]1COCc2c1cnn2-c1ccccc1F)c1ncn2c1CCCC2 (single isomer, unassigned) [Ex-3] | 7.00 to 8.00 | 7.00 to 8.00 | 92% | > 6.08 h | 9.97 h | 87% |  |  |  |  | 
2 | O=C(N[C@@H]1COCc2c1cnn2-c1ccccc1F)c1ncc2n1CCCC2 (single isomer, unassigned) [Ex-6] | 7.00 to 8.00 | 7.00 to 8.00 | 85% | 4.75 h | 4.9 h | 87% |  |  |  |  | 
3 | O=C(N[C@@H]1COCc2c1cnn2-c1c(F)cccc1Cl)c1ncn2c1CCCC2 (single isomer, unassigned) [Ex-11] | > 8.00 | > 8.00 | 93% | > 6.08 h | > 10 h |  | reduce MOLM13 cell growth and/or viability | largely prevented | 90% |  | 
4 | O=C(N[C@@H]1COCc2c1cnn2-c1c(Cl)cccc1Cl)c1ncn2c1CCCC2 (single isomer, unassigned) [Ex-13] | > 8.00 | > 8.00 | 88% | > 6.08 h | > 10 h |  |  |  | 95% |  | 
5 | Cc1cccc(Cl)c1-n1ncc2c1COC[C@H]2NC(=O)c1ncn2c1CCCC2 [Ex-34, (S)—N-(1-(2-chloro-6-methylphenyl)-1,4,5,7-tetrahydropyrano[3,4-c]pyrazol-4-yl)-5,6,7,8-tetrahydroimidazo[1,5-a]pyridine-1-carboxamide] | > 8.00 |  | 100% |  | > 10 h |  |  |  | 100% | > 8.00 | 5.62 h
6 | CCc1c(C(=O)N[C@@H]2COCc3c2cnn3-c2ccccc2F)ncn1C [Ex-41, (S)-5-ethyl-N-(1-(2-fluorophenyl)-1,4,5,7-tetrahydropyrano[3,4-c]pyrazol-4-yl)-1-methyl-1H-imidazole-4-carboxamide] | 7.00 to 8.00 | 7.00 to 8.00 | 100% | > 6.08 h | > 10 h |  |  |  | 100% |  | 
7 | Cc1cnc(C(=O)N[C@@H]2COCc3c2cnn3-c2ccccc2F)cc1C [Ex-45, (S)—N-(1-(2-fluorophenyl)-1,4,5,7-tetrahydropyrano[3,4-c]pyrazol-4-yl)-4,5-dimethylpicolinamide] |  |  | 88% | 4.57 h | 4.77 h |  |  |  | 72% |  | 
8 | O=C(N[C@@H]1COCc2c1cnn2-c1c(F)cccc1Cl)c1n[nH]c2c1CCCC2 [Ex-46, (S)—N-(1-(2-chloro-6-fluorophenyl)-1,4,5,7-tetrahydropyrano[3,4-c]pyrazol-4-yl)-4,5,6,7-tetrahydro-1H-indazole-3-carboxamide] | 7.00 to 8.00 | 7.00 to 8.00 | 90% | > 6.08 h | > 10 h |  |  |  | 89% |  | 
9 | O=C(N[C@@H]1COCc2c1cnn2-c1c(F)cccc1Cl)c1ncc2n1CCCC2 [Ex-47, (S)—N-(1-(2-chloro-6-fluorophenyl)-1,4,5,7-tetrahydropyrano[3,4-c]pyrazol-4-yl)-5,6,7,8-tetrahydroimidazo[1,5-a]pyridine-3-carboxamide] | > 8.00 | > 8.00 | 75% | 2.22 h | 9 h |  |  |  | 84% |  | 
10 | Cc1cnc(C(=O)N[C@@H]2COCc3c2cnn3-c2c(F)cccc2Cl)cc1C [Ex-48, (S)—N-(1-(2-chloro-6-fluorophenyl)-1,4,5,7-tetrahydropyrano[3,4-c]pyrazol-4-yl)-4,5-dimethylpicolinamide] | 7.00 to 8.00 | 7.00 to 8.00 | 96% | 6.08 h | 5.97 h |  |  |  | 82% |  | 
11 | O=C(N[C@@H]1COCc2c1cnn2-c1ccccc1Cl)c1ncn2c1CCCC2 [Ex-51, (S)—N-(1-(2-chlorophenyl)-1,4,5,7-tetrahydropyrano[3,4-c]pyrazol-4-yl)-5,6,7,8-tetrahydroimidazo[1,5-a]pyridine-1-carboxamide] | 7.00 to 8.00 | > 8.00 | 85% | 5.93 h | > 10 h |  |  |  | 100% |  | 
12 | Cc1ccccc1-n1ncc2c1COC[C@H]2NC(=O)c1ncn2c1CCCC2 [Ex-52, (S)—N-(1-(o-tolyl)-1,4,5,7-tetrahydropyrano[3,4-c]pyrazol-4-yl)-5,6,7,8-tetrahydroimidazo[1,5-a]pyridine-1-carboxamide] | 7.00 to 8.00 | 7.00 to 8.00 | 84% | 4.52 h | > 10 h | 100% |  |  |  |  | 
13 | Cc1ccc(Cl)c(-n2ncc3c2COC[C@H]3NC(=O)c2ncn3c2CCCC3)c1 [Ex-53, (S)—N-(1-(2-chloro-5-methylphenyl)-1,4,5,7-tetrahydropyrano[3,4-c]pyrazol-4-yl)-5,6,7,8-tetrahydroimidazo[1,5-a]pyridine-1-carboxamide] | 7.00 to 8.00 | 7.00 to 8.00 | 96% | > 6.08 h | > 10 h |  |  |  | 99% |  | 
14 | COc1ccccc1-n1ncc2c1COC[C@H]2NC(=O)c1ncn2c1CCCC2 [Ex-54, (S)—N-(1-(2-methoxyphenyl)-1,4,5,7-tetrahydropyrano[3,4-c]pyrazol-4-yl)-5,6,7,8-tetrahydroimidazo[1,5-a]pyridine-1-carboxamide] | 7.00 to 8.00 | 7.00 to 8.00 | 92% | > 6.08 h | > 10 h |  |  |  | 100% |  | 
15 | O=C(N[C@@H]1COCc2c1cnn2-c1ccccc1C(F)(F)F)c1ncn2c1CCCC2 [Ex-55, (S)—N-(1-(2-(trifluoromethyl)phenyl)-1,4,5,7-tetrahydropyrano[3,4-c]pyrazol-4-yl)-5,6,7,8-tetrahydroimidazo[1,5-a]pyridine-1-carboxamide] | 7.00 to 8.00 | 7.00 to 8.00 | 94% | > 6.08 h | > 10 h | 100% |  |  |  |  | 
